Reference: patent publication US20250144067A1, “PERSONALIZED STARVATION THERAPY FOR CANCER” (Faeth Therapeutics, Inc., priority 2021, published 2025)

Columns and labels:
[1] = test system: NCI-H292 lung cancer cells; assay: FDA drug screening, complete media vs cholesterol-free media with simvastatin (TABLE 2); format: cell-based, human; conditions: for Cholesterol-free media + simvastatin (0.04 μM) / Complete Media: NCI-H292 cells
[2] = test system: NCI-H292 lung cancer cells; assay: FDA drug screening, complete media vs cholesterol-free media without statin (TABLE 1); format: cell-based, human
[3] = cholesterol-free media with simvastatin 0.04 μM, FDA drug library screen (TABLE 2)
[4] = complete media, FDA drug library screen (TABLE 2)
[5] = complete media minus cholesterol-free media + simvastatin (0.04 μM), >0 enhanced anti-cancer activity, about 0 neutral, <0 antagonist
[6] = Complete minus Cholesterol-free, >0 enhanced anti-cancer activity, about 0 neutral, <0 antagonist
[7] = NCI-H292 cells, cholesterol-free media without statin, FDA drug library screen
[8] = NCI-H292 cells, complete media, FDA drug library screen
[9] = drug in cholesterol-free media with simvastatin 0.04 μM
[10] = complete media vs cholesterol-free media + simvastatin (0.04 μM), >0 enhanced anti-cancer activity, about 0 neutral, <0 antagonist
[11] = Complete minus Cholesterol-free, greater than 0 enhanced anti-cancer activity, about 0 neutral, below 0 antagonists
[12] = NCI-H292 cells in cholesterol-free media without statin
[13] = NCI-H292 cells in complete media
[14] = FDA library drug in cholesterol-free media with simvastatin 0.04 μM
[15] = FDA library drug in complete media
[16] = Complete minus Cholesterol-free, greater than 0 enhanced anti-cancer activity, about 0 neutral, below 0 antagonist
[17] = NCI-H292 cells, FDA drug library screen, cholesterol-free media without statin
[18] = NCI-H292 cells, FDA drug library screen, complete media
[19] = FDA drug library screen, cholesterol-free media with simvastatin 0.04 μM
[20] = FDA drug library screen, complete media
[21] = complete media vs cholesterol-free media + simvastatin (0.04 μM), […]
[22] = complete vs cholesterol-free media, […]
[23] = Complete minus Cholesterol-free, […]

Compound: CO[C@H]1C(=O)[C@]2(C)[C@@H](OC)C[C@H]3OC[C@@]3(OC(C)=O)[C@H]2[C@H](OC(=O)c2ccccc2)[C@]2(O)C[C@H](OC(=O)[C@H](O)[C@@H](NC(=O)OC(C)(C)C)c3ccccc3)C(C)=C1C2(C)C [Cabazitaxel]
- Cholesterol-free media + simvastatin (0.04 μM) [1, 3]: 0.364
- Complete Media [1, 4]: 0.3065
- Difference [1, 5]: −0.06
- Difference [2, 6]: −0.01
- Cholesterol-free [2, 7]: 0.2044
- Complete [2, 8]: 0.198

Compound: C=CCN1C[C@H](C(=O)N(CCCN(C)C)C(=O)NCC)C[C@@H]2c3cccc4[nH]cc(c34)C[C@H]21 [Cabergoline]
- Cholesterol-free media + simvastatin (0.04 μM) [1, 9]: 1.138
- Complete Media ([1]; drug in complete media): 0.8998
- Difference [1, 10]: −0.24
- Difference [2, 11]: −0.59
- Cholesterol-free [2, 12]: 1.769
- Complete [2, 13]: 1.184

Compound: COc1cc2nccc(Oc3ccc(NC(=O)C4(C(=O)Nc5ccc(F)cc5)CC4)cc3)c2cc1OC [Cabozantinib (S-malate)]
- Cholesterol-free media + simvastatin (0.04 μM) [1, 14]: 1.216
- Complete Media [1, 15]: 0.9255
- Difference [1, 10]: −0.29
- Difference [2, 16]: −0.18
- Cholesterol-free [2, 17]: 1.011
- Complete [2, 18]: 0.8269

Compound: COc1cc2nccc(Oc3ccc(NC(=O)C4(C(=O)Nc5ccc(F)cc5)CC4)cc3)c2cc1OC [Cabozantinib]
- Cholesterol-free media + simvastatin (0.04 μM) [1, 3]: 1.169
- Complete Media [1, 4]: 1.161
- Difference [1, 5]: −0.01
- Difference [2, 16]: −0.08
- Cholesterol-free [2, 17]: 1.023
- Complete [2, 18]: 0.943

Compound: O=C(O)/C=C/c1ccc(O)c(O)c1 [Caffeic acid]
- Cholesterol-free media + simvastatin (0.04 μM) [1, 19]: 0.9424
- Complete Media [1, 20]: 0.8032
- Difference [1, 10]: −0.14
- Difference [2, 6]: 0.01
- Cholesterol-free [2, 7]: 0.885
- Complete [2, 8]: 0.8915

Compound: C=C1CC[C@H](O)C/C1=C/C=C1\CCC[C@]2(C)[C@@H]([C@H](C)CCCC(C)(C)O)CC[C@@H]12 [Calcifediol]
- Cholesterol-free media + simvastatin (0.04 μM) [1, 9]: 1.216
- Complete Media ([1]; drug in complete media): 1.052
- Difference [1, 10]: −0.16
- Difference [2, 11]: −0.53
- Cholesterol-free [2, 12]: 1.425
- Complete [2, 13]: 0.8976

Compound: O=S(=O)([O-])c1cc(O)ccc1O.O=S(=O)([O-])c1cc(O)ccc1O.[Ca+2] [Calcium dobesilate]
- Cholesterol-free media + simvastatin (0.04 μM) [1, 9]: 1.427
- Complete Media ([1]; drug in complete media): 1.218
- Difference [1, 21]: −0.21
- Cholesterol-free [2, 7]: 1.325
- Complete [2, 8]: 1.418
- Difference [2, 22]: 0.09

Compound: CC12CCC(CC1=O)C2(C)C (stereo not drawn) [Camphor]
- Cholesterol-free media + simvastatin (0.04 μM) [1, 19]: 1.13
- Complete Media [1, 20]: 0.9969
- Difference [1, 10]: −0.13
- Difference [2, 11]: −0.48
- Cholesterol-free [2, 12]: 1.372
- Complete [2, 13]: 0.8909

Compound: CC[C@@]1(O)C(=O)OCc2c1cc1n(c2=O)Cc2cc3ccccc3nc2-1 [Camptothecin]
- Cholesterol-free media + simvastatin (0.04 μM) [1, 19]: −0.11
- Complete Media [1, 20]: 0.07415
- Difference ([1]; complete media minus cholesterol-free media + simvastatin, […]): 0.18
- Difference [2, 23]: −0.01
- Cholesterol-free [2, 7]: 0.0145
- Complete [2, 8]: 0.005875

Compound: Cc1ccc([C@@H]2O[C@H](CO)[C@@H](O)[C@H](O)[C@H]2O)cc1Cc1ccc(-c2ccc(F)cc2)s1.O [Canagliflozin (hemihydrate)]
- Cholesterol-free media + simvastatin (0.04 μM) [1, 14]: 1.34
- Complete Media [1, 15]: 0.8924
- Difference [1, 21]: −0.45
- Difference [2, 23]: −0.51
- Cholesterol-free [2, 12]: 1.347
- Complete [2, 13]: 0.8359

Compound: Cc1ccc([C@@H]2O[C@H](CO)[C@@H](O)[C@H](O)[C@H]2O)cc1Cc1ccc(-c2ccc(F)cc2)s1 [Canagliflozin]
- Cholesterol-free media + simvastatin (0.04 μM) [1, 3]: 1.109
- Complete Media [1, 4]: 1.104
- Difference ([1]; complete media minus cholesterol-free media + simvastatin (0.04 μM), […]): −0.01
- Cholesterol-free ([2]; NCI-H292 cells, cholesterol-free media without statin): 1.159
- Complete ([2]; NCI-H292 cells, complete media): 0.8206
- Difference [2, 22]: −0.34

Compound: CCOc1nc2cccc(C(=O)OC(C)OC(=O)OC3CCCCC3)c2n1Cc1ccc(-c2ccccc2-c2nnn[nH]2)cc1 (stereo not drawn) [Candesartan Cilexetil]
- Cholesterol-free media + simvastatin (0.04 μM) [1, 9]: 1.18
- Complete Media ([1]; drug in complete media): 0.9738
- Difference [1, 10]: −0.21
- Difference [2, 16]: −0.16
- Cholesterol-free [2, 17]: 1.093
- Complete [2, 18]: 0.9304

Compound: CCOc1nc2cccc(C(=O)O)c2n1Cc1ccc(-c2ccccc2-c2nnn[nH]2)cc1 [Candesartan]
- Cholesterol-free media + simvastatin (0.04 μM) [1, 9]: 1.101
- Complete Media ([1]; drug in complete media): 0.8684
- Difference [1, 10]: −0.23
- Difference [2, 6]: 0.02
- Cholesterol-free [2, 7]: 0.9494
- Complete [2, 8]: 0.9741

Compound: CSCCNc1nc(SCCC(F)(F)F)nc2c1ncn2[C@@H]1O[C@H](COP(=O)([O-])OP(=O)([O-])C(Cl)(Cl)P(=O)([O-])[O-])[C@@H](O)[C@H]1O.[Na+].[Na+].[Na+].[Na+] [Cangrelor (tetrasodium)]
- Cholesterol-free media + simvastatin (0.04 μM) [1, 19]: 1.209
- Complete Media [1, 20]: 1.098
- Difference [1, 21]: −0.11
- Difference [2, 23]: −0.14
- Cholesterol-free [2, 17]: 1.189
- Complete [2, 18]: 1.05
